pIC50, pKd: −log10 of the molar value. Where two headings read alike, the source gives them in different places. One block for each compound: values may come before it.
Columns and labels:
DYRK1A = target: T1, DYRK1A (Homo sapiens, UniProt Q13627); assay: biochemical; parameters: nanoDSF thermal shift, Prometheus NT.48, 5 uM protein, ligand-induced melting temperature change versus buffer or DMSO control; settings: for ΔTm at 1 µM / ΔTm at 10 µM / ΔTm at 100 µM: read-out: ΔTm to control (°C); for ΔTm to control (°C): binder
T1 construct: kinase domain, residues 127–485
Procedure: (§1) Nano-differential scanning fluorimetry measurements were performed for the determination of thermal protein stability using a Prometheus NT.48 (NanoTemper) device operating at the two wavelengths λ = 330 and 350 nm. […] The thermal stability was monitored from 20 to 70 °C at a heating rate of 1.5 °C/min using the PR.ThermControl software. […] Kinases were immobilized to the chip surface by amine coupling. […] Dissociation constants were determined based on fits applying a 1:1 interaction model. b Thermal protein stability measurements were performed using the NanoDSF technique. […] For raw data see Supplementary Table 3. Source data are provided as a Source Data file.

HIPK3 [1] = target: T2, HIPK3 (Homo sapiens, UniProt Q9H422); assay: radioactive in vitro kinase assay, His-c-Myc substrate; format: biochemical
T2 construct: kinase domain, residues 159–562
T2 sequence (Q9H422 159-562): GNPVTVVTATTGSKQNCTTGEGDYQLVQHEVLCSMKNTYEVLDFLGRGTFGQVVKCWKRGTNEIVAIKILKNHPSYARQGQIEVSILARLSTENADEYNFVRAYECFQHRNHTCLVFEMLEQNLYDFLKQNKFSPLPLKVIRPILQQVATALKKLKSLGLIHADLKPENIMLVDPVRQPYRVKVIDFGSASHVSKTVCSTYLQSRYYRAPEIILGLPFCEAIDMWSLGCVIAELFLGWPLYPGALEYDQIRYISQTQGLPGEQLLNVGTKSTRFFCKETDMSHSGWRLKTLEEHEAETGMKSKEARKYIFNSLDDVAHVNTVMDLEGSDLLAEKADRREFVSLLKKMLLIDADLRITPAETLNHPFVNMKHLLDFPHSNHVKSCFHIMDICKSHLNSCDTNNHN

HIPK1 [2] = target: T3, HIPK1 (Homo sapiens, UniProt Q86Z02); assay: biochemical; parameters: nanoDSF thermal shift, Prometheus NT.48, 5 uM protein, ligand-induced melting temperature change versus buffer or DMSO control; settings: read-out: ΔTm to control (°C)
T3 construct: residues 154-554
T3 sequence (Q86Z02 154-554): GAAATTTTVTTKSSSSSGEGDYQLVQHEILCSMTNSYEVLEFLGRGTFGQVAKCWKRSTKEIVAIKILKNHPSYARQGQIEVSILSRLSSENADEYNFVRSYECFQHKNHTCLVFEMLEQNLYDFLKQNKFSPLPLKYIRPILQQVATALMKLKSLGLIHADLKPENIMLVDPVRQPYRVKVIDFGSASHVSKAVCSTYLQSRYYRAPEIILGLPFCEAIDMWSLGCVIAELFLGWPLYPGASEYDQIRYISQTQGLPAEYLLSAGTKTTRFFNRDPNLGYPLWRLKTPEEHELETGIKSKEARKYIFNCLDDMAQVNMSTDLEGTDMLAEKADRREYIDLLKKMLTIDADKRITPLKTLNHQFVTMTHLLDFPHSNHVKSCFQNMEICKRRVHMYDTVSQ
Procedure: as §1

HIPK2 [3] = target: T4, HIPK2 (Homo sapiens, UniProt Q9H2X6); assay: biochemical; parameters: nanoDSF thermal shift, Prometheus NT.48, 5 uM protein, ligand-induced melting temperature change versus buffer or DMSO control; settings: read-out: ΔTm to control (°C)
T4 construct: residues 160–563
T4 sequence (Q9H2X6 160-563): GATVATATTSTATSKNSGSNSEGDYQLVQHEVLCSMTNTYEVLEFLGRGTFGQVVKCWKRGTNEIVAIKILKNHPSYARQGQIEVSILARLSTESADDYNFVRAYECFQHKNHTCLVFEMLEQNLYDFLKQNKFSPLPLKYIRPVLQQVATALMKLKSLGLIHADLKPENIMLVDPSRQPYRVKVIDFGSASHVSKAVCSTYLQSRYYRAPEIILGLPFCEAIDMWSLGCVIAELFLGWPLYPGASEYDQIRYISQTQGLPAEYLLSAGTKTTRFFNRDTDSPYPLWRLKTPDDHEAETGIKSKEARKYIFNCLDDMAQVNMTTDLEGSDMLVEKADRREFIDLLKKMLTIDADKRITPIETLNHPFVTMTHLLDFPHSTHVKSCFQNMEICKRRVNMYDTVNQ
Procedure: as §1

HIPK3 [4] = target: T2, HIPK3; assay: biochemical; parameters: nanoDSF thermal shift, Prometheus NT.48, 5 uM protein, ligand-induced melting temperature change versus buffer or DMSO control; settings: read-out: ΔTm to control (°C)
Procedure: as §1

Cdk9 = target: T5, Cdk9 (Homo sapiens, UniProt P50750); assay: biochemical; parameters: nanoDSF thermal shift, Prometheus NT.48, 5 uM protein, ligand-induced melting temperature change versus buffer or DMSO control; settings: read-out: ΔTm to control (°C)
T5 construct: full-length Cdk9 (residues 1–372) with Cyclin T1 (residues 1–272); with Cyclin T1
T5 sequence (P50750 whole entry, the tested form may be a part): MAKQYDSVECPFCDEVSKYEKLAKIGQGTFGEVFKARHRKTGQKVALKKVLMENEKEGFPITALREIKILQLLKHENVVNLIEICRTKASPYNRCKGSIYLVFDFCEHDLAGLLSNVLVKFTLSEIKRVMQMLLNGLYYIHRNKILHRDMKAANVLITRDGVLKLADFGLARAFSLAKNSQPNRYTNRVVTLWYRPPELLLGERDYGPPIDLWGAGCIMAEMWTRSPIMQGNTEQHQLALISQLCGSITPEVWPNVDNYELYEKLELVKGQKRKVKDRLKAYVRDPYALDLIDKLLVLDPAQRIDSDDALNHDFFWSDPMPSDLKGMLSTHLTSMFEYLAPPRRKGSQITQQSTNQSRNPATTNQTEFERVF
T5 sequence (O60563 1-272 partner): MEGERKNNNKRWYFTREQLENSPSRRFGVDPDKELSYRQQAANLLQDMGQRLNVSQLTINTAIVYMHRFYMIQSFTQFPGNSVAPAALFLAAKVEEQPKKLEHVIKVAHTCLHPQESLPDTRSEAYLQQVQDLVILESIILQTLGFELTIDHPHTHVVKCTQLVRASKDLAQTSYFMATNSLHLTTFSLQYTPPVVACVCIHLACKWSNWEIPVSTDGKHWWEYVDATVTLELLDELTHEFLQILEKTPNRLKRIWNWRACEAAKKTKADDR
Procedure: as §1

Cdk4 = target: T6, Cdk4 (Homo sapiens, UniProt P11802); assay: biochemical; parameters: nanoDSF thermal shift, Prometheus NT.48, 5 uM protein, ligand-induced melting temperature change versus buffer or DMSO control; settings: read-out: ΔTm to control (°C)
T6 construct: full-length Cdk4 (residues 1–303) with Cyclin D3 (residues 1–292); with Cyclin D3
T6 sequence (P11802 whole entry, the tested form may be a part): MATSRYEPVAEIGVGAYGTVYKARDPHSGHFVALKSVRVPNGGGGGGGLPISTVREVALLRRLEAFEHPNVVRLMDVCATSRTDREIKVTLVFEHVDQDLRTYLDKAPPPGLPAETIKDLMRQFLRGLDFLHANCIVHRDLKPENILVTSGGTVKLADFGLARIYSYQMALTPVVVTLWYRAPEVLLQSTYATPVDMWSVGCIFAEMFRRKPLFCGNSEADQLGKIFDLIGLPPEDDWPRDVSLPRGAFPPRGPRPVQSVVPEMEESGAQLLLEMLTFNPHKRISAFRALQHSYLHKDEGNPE
T6 sequence (P30281 whole entry partner, the tested form may be a part): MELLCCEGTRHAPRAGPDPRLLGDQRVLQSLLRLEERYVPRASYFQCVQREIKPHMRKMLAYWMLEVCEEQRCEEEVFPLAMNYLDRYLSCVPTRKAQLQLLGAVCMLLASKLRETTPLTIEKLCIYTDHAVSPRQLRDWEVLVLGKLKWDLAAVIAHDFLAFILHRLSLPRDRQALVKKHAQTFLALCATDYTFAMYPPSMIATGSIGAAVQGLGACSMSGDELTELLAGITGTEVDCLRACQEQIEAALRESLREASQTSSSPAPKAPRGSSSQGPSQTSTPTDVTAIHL
Procedure: as §1

HIPK1 [5] = target: T3, HIPK1; assay: radioactive in vitro kinase assay; nanoDSF shift +[…] °C; format: biochemical
HIPK2 [6] = target: T4, HIPK2; assay: SPR single-cycle kinetics; nanoDSF; kinase assay IC50 […]; format: binding
HIPK3 [7] = target: T2, HIPK3; assay: ([…] Å) and SPR; kinase assay IC50 […]; format: binding

Compound: O=C1NC(=O)/C(=C/c2ccc3nccc(-c4ccncc4)c3c2)S1 [GSK1059615]
pIC50 (HIPK3 [1]): 5.97

Compound: CCN1CCN(Cc2ccc(Nc3ncc(F)c(-c4cc(F)c5nc(C)n(C(C)C)c5c4)n3)nc2)CC1 [abemaciclib]
ΔTm at 1 µM (HIPK1 [2]): 0.4 °C
ΔTm at 10 µM (HIPK1 [2]): 6.4 °C
ΔTm at 100 µM (HIPK1 [2]): 8.7 °C
ΔTm at 1 µM (HIPK2 [3]): 1.5 °C
ΔTm at 10 µM (HIPK2 [3]): 4.7 °C
ΔTm at 100 µM (HIPK2 [3]): 7.2 °C
ΔTm at 1 µM (HIPK3 [4]): 0.2 °C
ΔTm at 10 µM (HIPK3 [4]): 5.3 °C
ΔTm at 100 µM (HIPK3 [4]): 7.4 °C
ΔTm at 1 µM (Cdk9): 0.6 °C
ΔTm at 10 µM (Cdk9): 2.4 °C
ΔTm at 1 µM (Cdk4): 4.1 °C
ΔTm at 100 µM (Cdk4): 7.9 °C
ΔTm at 1 µM (DYRK1A): 0.6 °C
ΔTm at 10 µM (DYRK1A): 3.1 °C
ΔTm at 100 µM (DYRK1A): 5.2 °C
pIC50 (HIPK1 [5]): 5.34
pKd (HIPK2 [6]): 9.10
pKd (HIPK3 [7]): 9.10

Next, values leading:

ΔTm at 1 µM (DYRK1A): -0.1 °C
ΔTm at 10 µM (DYRK1A): 0 °C
ΔTm at 100 µM (DYRK1A): -0.1 °C
Compound: Nc1ncnc2c1ncn2[C@@H]1O[C@H](COP(=O)(O)OP(=O)(O)O)[C@@H](O)[C@H]1O [ADP]

ΔTm to control (°C) (DYRK1A; 1 uM): -0.2 °C
ΔTm to control (°C) (DYRK1A; 10 uM): +0.1 °C
ΔTm to control (°C) (DYRK1A; 100 uM): 0.0 °C
Compound: Nc1ncnc2c1ncn2[C@@H]1O[C@H](COP(=O)(O)OP(=O)(O)OP(=O)(O)O)[C@@H](O)[C@H]1O [ATP]

pIC50 (HIPK3 [1]; read-out: IC50): 5.80
Compound: CN(C)C[C@H]1CC[C@H](N2C(=O)NCc3cnc4ccc(-c5cc(Cl)c(O)c(Cl)c5)cc4c32)CC1 [HTH-01-091]

From article PMC8595372 (Nature Communications, 2021)
